This note sets out measurements from ChEMBL document CHEMBL1201862, “PubChem BioAssay data set” (2004).

Among the test systems are EKVX; HOP-92; MDA-MB-231; K562; NCI-H23; COLO 205; UACC-62; A498; 786-0; RXF 393; Malme-3M; KM12; OVCAR-4; UACC-257; HOP-62; MDA-N; MDA-MB-435; ACHN; M14; SK-MEL-2.
Holding throughout (assay): NCI-60 cell line screen, 48 h

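These data come from cells grown in 96-well plates and exposed to compound for 48 hours at five concentrations. Here, GI50 denotes the concentration required for 50% inhibition of growth.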 Calls of active or inactive are those of the source. Rule as the data show it: active = GI50 up to about 1.1 µM and inactive = higher.

With `O=C1NC(=O)C(Cc2ccccc2)(c2cccnc2)N1` (stereo not given), the GI50 in the test on EKVX, in the test with HOP-92, in the test with MDA-MB-231, with K562, in the test with NCI-H23 and in the test on COLO 205 was > 100 µM (inactive) throughout. For the same compound, the GI50 in the test on UACC-62, with A498, in the test with 786-0, in the test on RXF 393, in the test on Malme-3M and in the test with KM12 was > 100 µM (inactive) each time. The GI50 with OVCAR-4, in the test with UACC-257, with HOP-62, with MDA-N, with MDA-MB-435 and in the test on ACHN was > 100 µM (inactive) throughout. Further, the GI50 in the test on M14 and in the test on SK-MEL-2 was > 100 µM (inactive) in each case.

Turning to `CC[C@]12C=CCN3CC[C@@]4(c5cc(N=O)c(OC)cc5N(C)[C@H]4[C@@](O)(C(=O)NC(Cc4c[nH]c5ccccc45)C(=O)OC)[C@@H]1O)[C@@H]32` (stereo not given in full), the GI50 in the test on EKVX is 20.9 µM (inactive); in the test with HOP-92, 12.3 µM (inactive); with MDA-MB-231, 18.3 µM (inactive); with K562, 3.92 µM (inactive); in the test on NCI-H23, 17.7 µM (inactive); in the test with COLO 205 it was 15.4 µM (inactive). For the same compound, the GI50 was 16 µM (inactive) with UACC-62; 32.4 µM (inactive) with A498; 30 µM (inactive) with 786-0; 12.6 µM (inactive) in the test on RXF 393; 18.6 µM (inactive) with Malme-3M; 12.5 µM (inactive) in the test with KM12. Moreover, the GI50 in the test with OVCAR-4 is 15.6 µM (inactive); in the test with UACC-257, 15.1 µM (inactive); in the test on HOP-62 it was 18.2 µM (inactive); with MDA-N, 20.3 µM (inactive); with MDA-MB-435, 17.1 µM (inactive); with ACHN it was 18.9 µM (inactive). In addition, the GI50 in the test with M14 is 19 µM (inactive); with SK-MEL-2, 15.3 µM (inactive).

For `COC(=O)/C=C1/CCC(C)(C(=O)NS(=O)(=O)c2ccc(C)cc2)C1(C)C` (stereo not given), the GI50 with EKVX, in the test with HOP-92, in the test with MDA-MB-231, in the test on K562, in the test with NCI-H23 and in the test on COLO 205 was > 100 µM (inactive) throughout. For the same compound, the GI50 in the test with UACC-62, in the test on A498, in the test on 786-0, with RXF 393, in the test on Malme-3M and in the test with KM12 was > 100 µM (inactive) in each case. For the same compound, the GI50 in the test on OVCAR-4, in the test on UACC-257, with HOP-62, in the test on MDA-N, with MDA-MB-435 and in the test with ACHN was > 100 µM (inactive) throughout. Moreover, the GI50 with M14 and with SK-MEL-2 was > 100 µM (inactive) throughout.

`O=C1/C(=C/c2ccc(O)cc2)Oc2ccccc21`: the GI50 in the test on EKVX is > 100 µM (inactive); with HOP-92, > 100 µM (inactive); with MDA-MB-231, > 100 µM (inactive); in the test on K562 it was 40.9 µM (inactive); with NCI-H23, 62.7 µM (inactive); in the test on COLO 205 it was > 100 µM (inactive). Also, the GI50 in the test with UACC-62 was > 100 µM (inactive); in the test on A498 it was > 100 µM (inactive); with 786-0, > 100 µM (inactive); in the test with RXF 393 it was > 100 µM (inactive); in the test with Malme-3M it was > 100 µM (inactive); in the test on KM12, 90.6 µM (inactive). Moreover, the GI50 was 72.6 µM (inactive) in the test on OVCAR-4; > 100 µM (inactive) in the test on UACC-257; > 100 µM (inactive) in the test with HOP-62; > 100 µM (inactive) in the test with MDA-N; 83.9 µM (inactive) with MDA-MB-435; > 100 µM (inactive) in the test with ACHN. The GI50 in the test on M14 and in the test on SK-MEL-2 was > 100 µM (inactive) throughout.

With `CN(C)CCNc1ccc2c(=O)n(CCN(C)C)c(=O)n3c4ccc(N)cc4c(=O)c1c23`, the GI50 is 0.119 µM (active) with EKVX; 0.0807 µM (active) in the test on HOP-92; 0.187 µM (active) in the test on MDA-MB-231; < 0.01 µM (active) with K562; 0.0361 µM (active) in the test on NCI-H23; 0.0675 µM (active) in the test on COLO 205. In addition, the GI50 in the test with UACC-62 was 0.393 µM (active); in the test with A498, 0.408 µM (active); in the test with 786-0 it was < 0.01 µM (active); in the test on RXF 393 it was 0.0769 µM (active); with Malme-3M, 0.116 µM (active); in the test on KM12, 0.0644 µM (active). The GI50 with OVCAR-4 was 0.0721 µM (active); in the test with UACC-257 it was 0.258 µM (active); in the test on HOP-62, 0.109 µM (active); in the test on MDA-N, 0.0502 µM (active); in the test on MDA-MB-435, 0.101 µM (active); in the test with ACHN, < 0.01 µM (active). The figures for the GI50 with M14 and with SK-MEL-2 were 0.12 µM (active) and 0.117 µM (active), respectively.

For the compound `C=C1CCOC2(C(O)C(C)(O)CO)NC(=O)C1(O)NC2=O` (stereo not given), the GI50 in the test on EKVX, in the test on HOP-92, with MDA-MB-231, with K562, with NCI-H23 and in the test on COLO 205 was > 100 µM (inactive) throughout. Further, the GI50 in the test with UACC-62, in the test on A498, in the test with 786-0, in the test with RXF 393, in the test with Malme-3M and in the test on KM12 was > 100 µM (inactive) in each case. Also, the GI50 with OVCAR-4, with UACC-257, in the test with HOP-62, in the test with MDA-N, with MDA-MB-435 and in the test with ACHN was > 100 µM (inactive) in each case. Further, the GI50 in the test on M14 and with SK-MEL-2 was > 100 µM (inactive) each time.

`OC1CCCCCCCCCCC1[S+]1CCCC1.O[B-](F)(F)F` (stereo not given): the GI50 with EKVX was > 100 µM (inactive); in the test on HOP-92, 44.1 µM (inactive); in the test with MDA-MB-231, > 100 µM (inactive); with K562, 29.6 µM (inactive); in the test on NCI-H23, 72.6 µM (inactive); in the test on COLO 205, 62.7 µM (inactive). Moreover, the GI50 in the test with UACC-62 is > 100 µM (inactive); in the test on A498 it was > 100 µM (inactive); in the test on 786-0, > 100 µM (inactive); in the test with RXF 393 it was > 100 µM (inactive); in the test with Malme-3M, 42 µM (inactive); with KM12, > 100 µM (inactive). Also, the GI50 in the test on OVCAR-4 is 85.9 µM (inactive); in the test on UACC-257, 38.8 µM (inactive); in the test on HOP-62, > 100 µM (inactive); in the test with MDA-N it was > 100 µM (inactive); in the test with MDA-MB-435, > 100 µM (inactive); with ACHN, > 100 µM (inactive). Moreover, the GI50 in the test on M14 and with SK-MEL-2 was > 100 µM (inactive) each time.
